For data set [1], the system named is tubulin. Kind of data set: Inhibition of tubulin polymerization (turbidimetry). The format is biochemical, bovine.
The next data set deals with MLM melanoma. Kind of data set: MTT cytotoxicity assay, MLM. The conditions noted are these: for IC50: read-out: Cytotoxicity ED50, MLM.
The test system of another data set is A-549 lung carcinoma. Kind of data set: MTT cytotoxicity assay, A-549. The conditions noted are these: for IC50: Homo sapiens, A549, […], read-out: Cytotoxicity ED50, A-549. (Tetrazolium dyes change colour on reduction, which living cells bring about.)
The subject of another data set is MCF-7 breast carcinoma. Kind of data set: MTT cytotoxicity assay, MCF-7. The following applies: for IC50: Homo sapiens, MCF7, […], read-out: Cytotoxicity ED50, MCF-7.
For data set [2], the system named is HT-29 colon adenocarcinoma. The data set is described as follows: MTT cytotoxicity assay, HT-29. The following applies: for IC50: Homo sapiens, HT-29, […], read-out: Cytotoxicity ED50, HT-29.
Another data set concerns SKMEL-5 melanoma. The data set is described as follows: MTT cytotoxicity assay, SKMEL-5. The conditions noted are these: for IC50: Homo sapiens, SK-MEL-5, […], read-out: Cytotoxicity ED50, SKMEL-5.
For data set [3], the system named is five cancer cell cultures. The data set is described as follows: MTT cytotoxicity assay, five cancer cell cultures taken together. The following applies: for less cytotoxic than 8a / cytotoxicity reduced: relative to 8a; for cytotoxicity (in words): five cancer cell lines.
Data set [4] deals with DMS 273 small cell lung cancer. Kind of data set: Cytotoxicity, DMS 273. The following applies: read-out: cytotoxicity GI50, DMS 273; 50% growth inhibition; average of two determinations; 8640 min.
Data set [5] concerns tubulin. The data set is described as follows: Inhibition of [3H]colchicine binding to tubulin (DEAE-filter). Also noted: species or system bovine. The conditions noted are these: 1 μM tubulin, 5 μM [3H]colchicine, 5 μM inhibitor, 10 min, 37° C.
Setting [6] is: second series (Tables V-VII, IX), read-out: Inhibition of Tubulin Polymerization IC50 (±S.D.).
Setting [7] is: read-out: cytotoxicity ED50, A-549, MCF-7, HT-29, and SKMEL-5 cell cultures.
Setting [8] is: read-out: cytotoxicity ED50, in at least four cell lines.
Setting [9] is: first series (Table VIII and text), 37° C., 20 min, read-out: Tubulin polymerization IC50 (±S.D.).

Structures can show the parent of a compound that is named as a salt. Where two headings read alike, the source gives them in different places.

As for `COc1ccc(C(=O)c2cc(OC)c(OC)c(OC)c2)cc1` [compound 27, 3,4,4',5-Tetramethoxybenzophenone], the IC50 with tubulin [1] (setting [6]) came to 7.4 µM; in the data set with MLM melanoma, 0.013 µM; in the data set on A-549 lung carcinoma, 11 nM; in the data set with MCF-7 breast carcinoma, 15 nM; in [2] it was 13 nM; in the data set on SKMEL-5 melanoma, 12 nM. Also, the “less cytotoxic than 8a / cytotoxicity reduced” value in data set [3] was “about 100 -fold”.
`COC(=O)/C(=C/c1ccc(OC)cc1)c1cc(OC)c(OC)c(OC)c1` [compound 24a, (E)-Methyl 3-(4-methoxyphenyl)-2-(3,4,5-trimethoxyphenyl)-prop-2-enoate]: the IC50 in the data set on tubulin [1] (setting [6]) is above 40 µM; in the data set on MLM melanoma, 9.6 µM; in the data set on A-549 lung carcinoma, 11 nM; with MCF-7 breast carcinoma, 20 nM; in [2] it was 9.5 nM; with SKMEL-5 melanoma it was 6.4 nM. Also, the IC50 in data set [3] (setting [7]) is 6.4 to 50 nM.
As to `COc1ccc(CC(C#N)c2cc(OC)c(OC)c(OC)c2)cc1` (centres unmarked) [compound 17h, 3-(4-Methoxyphenyl)-2-(3,4,5-trimethoxyphenyl)propanonitrile], the IC50 in the data set with tubulin [1] (setting [6]) is 11 µM; in the data set with MLM melanoma, 1.6 µM; with A-549 lung carcinoma it was 9.6 nM; in the data set on MCF-7 breast carcinoma, 14 nM; in data set [2] it was 7.5 nM; with SKMEL-5 melanoma, 4.1 nM. Moreover, in data set [3] (setting [8]), the IC50 was below 1000 nM.
For the compound `CCCOc1ccc(CCc2cc(OC)c(OC)c(OC)c2)cc1` [17b, 1-(4-n-Propoxyphenyl)-2-(3,4,5-trimethoxyphenyl)ethane], the IC50 in the data set with tubulin [1] (setting [6]) was above 40 µM; with MLM melanoma it was 15 µM; in the data set with A-549 lung carcinoma, 7200 nM; with MCF-7 breast carcinoma it was 3900 nM; in data set [2] it was 6400 nM; with SKMEL-5 melanoma, 6700 nM. Further, in data set [3], the “cytotoxicity (in words)” value is “decreased cytotoxicity”.
For `CCN(CC)CCOc1ccc(CCc2cc(OC)c(OC)c(OC)c2)cc1` [17g], the IC50 is above 40 µM with tubulin [1] (setting [6]); above 25 µM with MLM melanoma; 6800 nM in the data set on A-549 lung carcinoma; 4300 nM in the data set on MCF-7 breast carcinoma; 5200 nM in data set [2]; 8500 nM in the data set with SKMEL-5 melanoma. Besides, the “cytotoxicity (in words)” value in data set [3] is given as “decreased cytotoxicity”.
Take `COc1cc(CCc2ccc(OCCN(C)C)cc2)cc(OC)c1OC` [17f]: the IC50 in the data set with tubulin [1] (setting [6]) was above 40 µM; in the data set on MLM melanoma it was above 25 µM; in the data set on A-549 lung carcinoma it was above 25000 nM; with MCF-7 breast carcinoma, 10300 nM; in data set [2], 9800 nM; in the data set on SKMEL-5 melanoma it was 11400 nM. Besides, the “cytotoxicity (in words)” value in data set [3] is listed as “decreased cytotoxicity”.
A word on the GI50: it is the concentration giving 50% growth inhibition. In the case of `COc1cc(CNc2ccc(C(C)C)cc2)cc(OC)c1OC` [110f, 4-Isopropyl-N-(3,4,5-trimethoxybenzyl)aniline Hydrochloride], the IC50 in the data set on tubulin [1] (Table X, different glutamate preparation (1M monosodium glutamate and GTP), read-out: inhibn of tubulin polymn IC50 (±SD)) was above 40 µM. Moreover, the GI50 in [4] amounted to 12.9 µM.
Regarding `COc1ccc(C(C#N)Cc2cc(OC)c(OC)c(OC)c2)cc1` (centres unmarked) [compound 17i, 2-(4-Methoxyphenyl)-3-(3,4,5-trimethoxyphenyl)propanonitrile], the IC50 was above 40 µM in the data set with tubulin [1] (setting [6]); 21.1 µM with MLM melanoma; 11500 nM with A-549 lung carcinoma; 14300 nM in the data set with MCF-7 breast carcinoma; 9400 nM in data set [2]; 6400 nM in the data set on SKMEL-5 melanoma. In addition, the “less cytotoxic than 8a / cytotoxicity reduced” value in data set [3] is recorded as 10,000 -fold.
`COc1cc([C@@H]2c3cc4c(cc3[C@H](O)[C@H]3COC(=O)[C@H]23)OCO4)cc(OC)c1OC` [Podophyllotoxin, reference compound]: the IC50 in the data set with tubulin [1] (Table X footnote b, different glutamate preparation, read-out: tubulin polymerization IC50, standard agents) was […]; with tubulin [1] (setting [9]) it was […]. For the same compound, in the data set on tubulin [5], the “Colchicine binding % inhibition” value amounted to 88%.
For `CNC(=O)/C(=C/c1ccc(OC)cc1)c1cc(OC)c(OC)c(OC)c1` [compound 24c, (E)-N-Methyl-[3-(4-methoxyphenyl)-2-(3,4,5-trimethoxyphenyl)]-prop-2-enoamide], the IC50 with tubulin [1] (setting [6]) worked out at 35 µM; in the data set with MLM melanoma, 9.3 µM; in the data set with A-549 lung carcinoma it was 24 nM; with MCF-7 breast carcinoma it was 50 nM; in data set [2], 26 nM; with SKMEL-5 melanoma, 24 nM. Moreover, the IC50 in data set [3] (setting [7]) lay within 6.4 to 50 nM.
`COc1ccc(/C=C\c2cc(OC)cc(OC)c2)cc1` [15i, (Z)-1-(3,5-Dimethoxyphenyl)-2-(4-methoxyphenyl)ethene]: the IC50 in the data set on tubulin [1] (setting [6]) stood at 3.8 µM; in the data set with MLM melanoma, 0.098 µM; in the data set on A-549 lung carcinoma, 130 nM; with MCF-7 breast carcinoma it was 160 nM; in [2], 340 nM; with SKMEL-5 melanoma it was 420 nM. Further, the IC50 in data set [3] (read-out: cytotoxicity ED50) is around 100 nM.
For `CCN(CC)CCOC(=O)/C(=C/c1cccc(OC)c1)c1cc(OC)c(OC)c(OC)c1` [24f, (E)-(2-N,N-Diethylamino)ethyl-3-(3-methoxyphenyl)-2-(3,4,5-trimethoxyphenyl)-prop-2-enoate], the IC50 was above 40 µM in the data set on tubulin [1] (setting [6]); above 25 µM with MLM melanoma; 7700 nM in the data set with A-549 lung carcinoma; 10400 nM in the data set with MCF-7 breast carcinoma; above 25000 nM in data set [2]; 6700 nM with SKMEL-5 melanoma. Also, in data set [3], the “cytotoxicity (in words)” value is “did not show considerable cytotoxicity”.
Consider `COC(=O)C(Cc1cc(OC)c(OC)c(OC)c1)c1ccc(OC)cc1` (centres unmarked) [compound 17j, Methyl 2-(4-methoxyphenyl)-3-(3,4,5-trimethoxyphenyl)n-proponate], for which the IC50 is above 40 µM in the data set on tubulin [1] (setting [6]); above 25 µM with MLM melanoma; above 25000 nM with A-549 lung carcinoma; above 25000 nM with MCF-7 breast carcinoma; above 25000 nM in data set [2]; above 25000 nM in the data set on SKMEL-5 melanoma. Further, in data set [3] (read-out: cytotoxicity ED50, five cancer cell lines), the IC50 was above 25000 nM.
Consider `COc1ccc(/C=C\c2cc(OC)c(OC)c(OC)c2)cc1` [compound 5a, (Z)-1-(4-Methoxyphenyl)-2-(3,4,5-trimethoxyphenyl)ethene], for which the “inhibition of tubulin polymerization (in words)” value with tubulin [1] is “strong inhibitors of tubulin polymerization”. Further, the IC50 with tubulin [1] (setting [9]) is 2.2 µM; with tubulin [1] (setting [6]), 2.5 µM; with SKMEL-5 melanoma, 0.26 nM; in [3] (read-out: cytotoxicity ED50) it was below 1000 nM. Besides, the “times less cytotoxic than combretastatin A-4 (1a)” value with MLM melanoma (MLM) is on record as around 7 times; in the data set with A-549 lung carcinoma (A-549) it was “about 20 times”; with SKMEL-5 melanoma (SKMEL-5), around 30 times. Further, the “times more cytotoxic than combretastatin A-4 (1a)” value in the data set with MCF-7 breast carcinoma (MCF-7) is listed as “about 10 times”; in data set [2] (HT-29) it was “approximately 140 times”.
In the case of `COc1ccc(C(O)c2cc(OC)c(OC)c(OC)c2)cc1` (centres unmarked) [compound 28, 4-Methoxyphenyl-(3,4,5-trimethoxyphenyl)methanol], the IC50 in the data set on tubulin [1] (setting [6]) was above 40 µM; in the data set on MLM melanoma, 16.8 µM; in the data set on A-549 lung carcinoma, 1500 nM; with MCF-7 breast carcinoma, 1900 nM; in [2] it was 1200 nM; in the data set on SKMEL-5 melanoma, 1500 nM. For the same compound, in [3] (28 relative to 27), the “cytotoxicity reduced relative to 27” value is 100 times.
For the compound `COc1cc(CCc2ccc(SC)cc2)cc(OC)c1OC` [17c, 1-(4-Methylthiophenyl)-2-(3,4,5-trimethoxyphenyl)ethane], the IC50 is above 40 µM in the data set with tubulin [1] (setting [6]); 1.3 µM in the data set on MLM melanoma; 150 nM in the data set on A-549 lung carcinoma; 200 nM with MCF-7 breast carcinoma; 400 nM in data set [2]; 240 nM with SKMEL-5 melanoma. The “cytotoxicity (in words)” value in data set [3] is reported as “decreased cytotoxicity”.
For the compound `CCNC(=O)/C(=C/c1ccc(OC)cc1)c1cc(OC)c(OC)c(OC)c1` [compound 24d, (E)-N-Ethyl-[3-(4-methoxyphenyl)-2-(3,4,5-trimethoxyphenyl)]-prop-2-enoamide], the IC50 with tubulin [1] (setting [6]) was above 40 µM; in the data set on MLM melanoma it was above 25 µM; in the data set on A-549 lung carcinoma, 3400 nM; with MCF-7 breast carcinoma, 3700 nM; in [2], 1800 nM; with SKMEL-5 melanoma, 7050 nM. Besides, the “cytotoxicity (in words)” value in [3] is recorded as “did not show considerable cytotoxicity”.
For `CCOc1ccc(CCc2cc(OC)c(OC)c(OC)c2)cc1` [17a, 1-(4-Ethoxyphenyl)-2-(3,4,5-trimethoxyphenyl)ethane], the IC50 in the data set with tubulin [1] (setting [6]) came to 10 µM; with MLM melanoma, 2.7 µM; with A-549 lung carcinoma it was 190 nM; with MCF-7 breast carcinoma, 190 nM; in [2] it was 180 nM; with SKMEL-5 melanoma, 170 nM. For the same compound, in [3] (setting [8]), the IC50 was below 1000 nM.
With `COc1cc(/C=C/c2ccc(N(C)C)cc2)cc(OC)c1OC` [compound 6n, (E)-1-[4-(N,N-Dimethylamino)phenyl]-2-(3,4,5-trimethoxyphenyl)ethene], in the data set with tubulin [1], the “inhibition of tubulin polymerization (in words)” value was “neither trans stilbene was able to significantly inhibit tubulin polymerization”. Further, the IC50 is above 50 µM in the data set on tubulin [1] (setting [9]); 0.0125 µM in the data set with MLM melanoma; 6.1 nM with A-549 lung carcinoma; 82 nM in the data set on MCF-7 breast carcinoma; 6.9 nM in data set [2]; 4.6 nM in the data set with SKMEL-5 melanoma. For the same compound, the IC50 in data set [3] (read-out: cytotoxicity ED50, in at least three cell lines) was below 1000 nM.

The record behind these values is US5430062A, “Stilbene derivatives as anticancer agents” (priority 1993, dated 1995).
